Measurements: PMC8092876, “A Leucyl-tRNA Synthetase Inhibitor with Broad-Spectrum Antimycobacterial Activity” (Antimicrobial Agents and Chemotherapy, 2021)

Test system: M. abscessus Bamboo
Format: cell-based
Settings: M. abscessus versus M. tuberculosis

With `CC(C)(O)COc1ccc(Br)c2c1B(O)O[C@@H]2CN` [EC/11770] the “frequency of resistance lower than for other benzoxaboroles in M. tuberculosis” value was 100 fold.
